The source of these data is ChEMBL document CHEMBL2440041, “5-Deazaflavin derivatives as inhibitors of p53 ubiquitination by HDM2” (Bioorg Med Chem, 2013).

Bounds are passed on as bounds.

The target of this test is E3 ubiquitin-protein ligase Mdm2 (Homo sapiens, UniProt Q00987).
Chain of E3 ubiquitin-protein ligase Mdm2 (Q00987 whole entry): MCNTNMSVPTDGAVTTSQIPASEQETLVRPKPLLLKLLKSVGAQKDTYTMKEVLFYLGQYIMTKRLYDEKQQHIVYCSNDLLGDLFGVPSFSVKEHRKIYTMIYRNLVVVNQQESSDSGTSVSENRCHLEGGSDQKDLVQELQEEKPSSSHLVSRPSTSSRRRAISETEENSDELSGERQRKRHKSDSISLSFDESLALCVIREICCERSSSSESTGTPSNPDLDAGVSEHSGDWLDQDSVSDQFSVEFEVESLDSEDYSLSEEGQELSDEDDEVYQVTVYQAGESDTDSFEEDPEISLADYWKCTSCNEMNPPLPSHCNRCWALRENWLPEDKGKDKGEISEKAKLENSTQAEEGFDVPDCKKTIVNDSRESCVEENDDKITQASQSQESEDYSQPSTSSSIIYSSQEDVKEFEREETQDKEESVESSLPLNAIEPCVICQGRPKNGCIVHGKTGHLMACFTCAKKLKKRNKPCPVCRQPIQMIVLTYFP
Description: Inhibition of GST-tagged HDM2 (unknown origin) assessed as p53 ubiquitination by Western blot analysis
Turning to `O=c1nc2n(-c3ccc(F)cc3)c3c(C(F)(F)F)cccc3cc-2c(=O)[nH]1`, the half-inhibitory concentration (IC50) (as a rule, the concentration needed to halve the response being measured) turned out to be 13.1 µM.

`O=c1nc2n(-c3ccc(Cl)cc3)c3cccc(Cl)c3cc-2c(=O)[nH]1`: the half-maximal inhibitory concentration (IC50) was > 100 µM.

For `O=c1nc2n(-c3ccccc3F)c3c(C(F)(F)F)cccc3cc-2c(=O)[nH]1`, the half-maximal inhibitory concentration (IC50) worked out at 19.6 µM.

On to `O=c1nc2n(-c3ccc(Cl)cc3)c3ccc([N+](=O)[O-])cc3cc-2c(=O)[nH]1`, for which the IC50 is > 75 µM.

In the case of `O=c1nc2n(-c3ccccc3)c3c(Cl)cccc3cc-2c(=O)[nH]1`, the IC50 was > 100 µM.

As to `O=c1nc2n(-c3ccc(Cl)cc3)c3cc(C(F)(F)F)ccc3cc-2c(=O)[nH]1`, the IC50 is > 100 µM.

For the compound `O=c1nc2n(-c3ccc(Cl)cc3)c3cccc(C(F)(F)F)c3cc-2c(=O)[nH]1`, the IC50 is > 100 µM.

Regarding `O=c1nc2n(-c3ccccc3F)c3cc(C(F)(F)F)ccc3cc-2c(=O)[nH]1`, the 50% inhibitory concentration (IC50) was > 100 µM.

As for `O=c1nc2n(-c3ccc(Cl)cc3)c3c([N+](=O)[O-])cccc3cc-2c(=O)[nH]1`, the half-maximal inhibitory concentration (IC50) is > 50 µM.

As to `O=c1nc2n(-c3ccccc3F)c3c([N+](=O)[O-])cccc3cc-2c(=O)[nH]1`, the half-maximal inhibitory concentration (IC50) was > 100 µM.

For the compound `O=c1nc2n(-c3ccccc3)c3c(Br)cccc3cc-2c(=O)[nH]1`, the IC50 is > 100 µM.

For `Cc1ccc2cc3c(=O)[nH]c(=O)nc-3n(-c3ccc(Cl)cc3)c2c1`, the 50% inhibitory concentration (IC50) was > 100 µM.

As for `O=c1nc2n(-c3cccc(F)c3)c3c(Cl)cccc3cc-2c(=O)[nH]1`, the IC50 was > 100 µM.

As to `O=c1nc2n(-c3cccc(Cl)c3)c3c(Cl)cccc3cc-2c(=O)[nH]1`, the IC50 was > 100 µM.

Take `O=c1nc2n(-c3ccccc3F)c3ccc(Cl)cc3cc-2c(=O)[nH]1`: the half-inhibitory concentration (IC50) is > 100 µM.

Consider `O=c1nc2n(Cc3ccccc3)c3c(C(F)(F)F)cccc3cc-2c(=O)[nH]1`, for which the 50% inhibitory concentration (IC50) was > 100 µM.

In the case of `O=c1nc2n(-c3ccc(Cl)cc3)c3ccc(C(F)(F)F)cc3cc-2c(=O)[nH]1`, the 50% inhibitory concentration (IC50) is > 100 µM.
